In PMC10788912 (Journal of Medicinal Chemistry, 2023):
Where two headings read alike, the source gives them in different places.

Experiments:
[1] = tested on: human cervix adenocarcinoma (HeLa) cells; test: Phototoxicity testing, MTT assay, HeLa; format: cell-based
Procedure: (§1) The cells were treated with tested compounds diluted in Earle’s balanced salt solution (EBSS) for 1 h in the dark to allow the complexes to penetrate the cells. Afterward, the cells were irradiated for 1 h with blue light (LZC-4 photoreactor equipped with 16 lamps LZC-420, λmax = 420 nm) or sham irradiated. EBSS containing an Ir complex was then removed, and cells were incubated in the complete, drug-free Dulbecco’s modified Eagle’s medium (DMEM).
(§2) The metabolic activity of the cells (proportional to number of viable cells) was determined 72 h after irradiation using the standard 3-[4,5-dimethylthiazol-2-yl]-2,5 diphenyl tetrazolium bromide (MTT) assay. […] For comparative purposes (and at the reviewer’s request), the clinically used metallodrug cisplatin was included in the experiment.
Therefore, the photoactivation of Ir2 was tested also using a green (λmax = 545 nm) or red (λmax = 613 nm) light irradiation. For this experiment, samples were irradiated with a visible cool white lamp (LZC-Vis, Luzchem), and the appropriate green or red filter was applied; spectral characteristics can be seen in Figure S58.
The phototoxic potency of Ir complexes 1–4 was determined against human cancer Hela, A375, and HCT116 cell lines. […] The number of cells was determined using a standard MTT or SRB assay. […] The phototoxic index (PI) was calculated as a ratio of IC50 (dark)/IC50 (irradiated).

[2] = tested on: human skin melanoma cells A375; test: Phototoxicity testing, MTT assay, A375; format: cell-based; conditions: MTT 72 h
Procedure: as §1, §2
(§3) The phototoxic potency of Ir complexes 1–4 was determined against human cancer Hela, A375, and HCT116 cell lines. Cells were seeded on 96-well tissue culture plates at a density of 5 × 10^3 cells/well in 100 μL of complete DMEM medium and cultured overnight in a humidified incubator. […] The number of cells was determined using a standard MTT or SRB assay. […] The phototoxic index (PI) was calculated as a ratio of IC50 (dark)/IC50 (irradiated).

[3] = tested on: human lung fibroblast MRC5 cells; test: Long-term dark effect on noncancerous cells, MTT, MRC5; format: cell-based; conditions: continuous exposure 48 h
Procedure: The low toxicity of nonirradiated Ir complexes toward human noncancerous cells was confirmed by the fact that their effect was very low or even undetectable during long-term exposure when the human primary prostate epithelial hTERT EP156T and human lung fibroblast MRC5 cells were exposed to the complexes continuously for 48 h (Table 2).
After the period of incubation, an MTT assay was performed and evaluated.

[4] = tested on: human colon adenocarcinoma HCT116 cells; test: Phototoxicity testing, MTT assay, HCT116; format: cell-based; conditions: MTT 72 h
Procedure: as §1, §2, §3

caspase-3 in HeLa cells = test: Caspase-3/7 activity assay; format: cell-based, human; conditions: equitoxic concentrations, 1 h dark, 1 h irradiation 420 nm, 2 h recovery
Procedure: Figure 7 and Figure S59 show the morphological alteration observed 2 h after the HeLa cells were treated with Ir complexes 1–4 at their equitoxic concentrations (IC50,72h) and irradiated. […] The whole cells were swollen and rounded (Figure 7B–E). A significant cytoplasm blebbing was evident in the early stages of the process (Figure 7F). The bubbles around the cells were completely clean inside (Figure 7F), distinguishing them from the budding process typical of apoptosis.
The activation of caspase-3 was detected using CellEvent Caspase-3/7 Green - Active Caspase-3/7 Assay Kit (Thermo Fisher Scientific). Briefly, HeLa cells were seeded at a 6-well plate at 3 × 10^5 cells/well density and treated and irradiated as described above (1 h preincubation in the dark, 1 h irradiation at 420 nm). After 2 h of recovery in compound-free media, cells were stained with the CellEventCaspase 3/7 Green Detection Reagent according to the manufacturer’s protocol, and the fluorescence signal was analyzed by flow cytometry.

N.N.[Cl][Pt][Cl] [cisPt, cisplatin] gave an IC50 ([1]; 1 h dark, then blue light 1 h, λmax = 420 nm, 58 ± 2 W m–2, MTT 72 h after irradiation, read-out: IC50 HeLa irrad) of 27 ± 3 µM, an IC50 ([1]; sham irradiated, MTT 72 h, read-out: IC50 HeLa sham irrad) of 23 ± 4 µM and an IC50 ([2]; blue light 1 h, λmax = 420 nm, 58 ± 2 W m–2, read-out: IC50 A375 irrad) of 15 ± 2 µM. The IC50 ([2]; sham irradiated, read-out: IC50 A375 sham irrad) was 14 ± 1 µM, the IC50 [3] was 6 ± 0.7 µM and the IC50 ([4]; blue light 1 h, λmax = 420 nm, 58 ± 2 W m–2, read-out: IC50 HCT116 irrad) was 27 ± 7 µM. The IC50 ([4]; sham irradiated, read-out: IC50 HCT116 sham irrad) was 19 ± 4 µM.

With CN[C@@H]1C[C@H]2O[C@@](C)([C@@H]1OC)n1c3ccccc3c3c4c(c5c6ccccc6n2c5c31)C(=O)NC4 [staurosporine] the caspase-3 activity (caspase-3 in HeLa cells) was “significantly increased signal”.
